According to patent US12677830B2, “3-alkoxybenzamide derivative, and pest control agent” (Kumiai Chemical Industry Co., Ltd., priority 2020, dated 2026):

Experiments:
Format in all cases: in vivo
[1] = tested on: Tetranychus urticae; assay: Test for control effect against Tetranychus urticae (soybean seedling dip); conditions: 312 h, 500 ppm active ingredient (wettable powder in water), soybean seedling inoculated with 35 female adults immersed, 25° C., 13 days after the treatment, read-out: controlling value
Protocol: [Test Example 5] Test for Control Effect Against Tetranychus urticae
The wettable powder prepared in accordance with Formulation Example 2 was diluted with water to a concentration of 500 ppm as an active ingredient. A soybean seedling previously inoculated with 35 female adults of Tetranychus urticae was immersed in the chemical solution, and air-dried. The treated soybean seedling was placed in a room at constant temperature of 25° C. The number of surviving female adults was examined at 13 days after the treatment, and the controlling value was determined by the calculation formula of Equation 2. The number of replicate is one in each test.
The compound numbers of the compounds showing a controlling value of 90 or more in this test are listed below.

[2] = tested on: Nilaparvata lugens; assay: Test for insecticidal activity against Nilaparvata lugens (rice sprout dip); conditions: 144 h, 500 ppm active ingredient (wettable powder in water), rice sprouts immersed, ten second instar larvae, 25° C., 6 days after the treatment, read-out: mortality rate
Protocol: [Test Example 3] Test for Insecticidal Activity Against Nilaparvata lugens
The wettable powder prepared in accordance with Formulation Example 2 was diluted with water to a concentration of 500 ppm as an active ingredient. The rice sprouts were immersed in the chemical solution, and placed in a plastic cup. Ten second instar larvae of Nilaparvata lugens were released into the plastic cup, and the cup was capped. Thereafter, the cup was placed in a room at constant temperature of 25° C. The number of dead insects was examined at 6 days after the treatment, and the mortality rate was calculated by the calculation formula of Equation 1. The number of replicate is one in each test.
(§1) The compound numbers of the compounds showing a mortality rate of 90% or more in this test are listed below.

[3] = tested on: Plutella xylostella; assay: Test for insecticidal activity against Plutella xylostella (cabbage leaf dip); conditions: foliar, 144 h, 500 ppm active ingredient (wettable powder in water), cabbage leaves immersed, ten second instar larvae, 25° C., 6 days after the treatment, read-out: mortality rate
Protocol: [Test Example 1] Test for Insecticidal Activity Against Plutella xylostella
(§2) The wettable powder prepared in accordance with Formulation Example 2 was diluted with water to a concentration of 500 ppm as an active ingredient. Cabbage leaves were immersed in the chemical solution, air-dried, and then placed in a plastic cup. Ten second instar larvae of Plutella xylostella were released into the cup, and the cup was capped. Thereafter, the cup was placed in a room at constant temperature of 25° C. The number of dead insects was examined at 6 days after the treatment, and the mortality rate was calculated by the calculation formula of Equation 1. The number of replicate is one in each test.
as §1

[4] = tested on: Helicoverpa armigera; assay: Test for insecticidal activity against Helicoverpa armigera (cabbage leaf dip); conditions: foliar, 144 h, 500 ppm active ingredient (wettable powder in water), cabbage leaves immersed, five hatching larvae, 25° C., 6 days after the treatment, read-out: mortality rate
Protocol: [Test Example 2] Test for Insecticidal Activity Against Helicoverpa armigera
as §2, with “Five hatching” for “Ten second instar”, “Helicoverpa armigera” for “Plutella xylostella”, “two” for “one”
as §1

[5] = tested on: Aphis gossypii; assay: Test for control effect against Aphis gossypii (cucumber seedling dip); conditions: 72 h, 500 ppm active ingredient (wettable powder in water), cucumber seedling inoculated with nymphs immersed, 25° C., 3 days after the treatment, read-out: mortality rate
Protocol: [Test Example 4] Test for Control Effect Against Aphis gossypii
The wettable powder prepared in accordance with Formulation Example 2 was diluted with water to a concentration of 500 ppm as an active ingredient. A cucumber seedling previously inoculated with Aphis gossypii nymphs was immersed in the chemical solution, and air-dried. The treated cucumber seedling was placed in a room at constant temperature of 25° C. The number of surviving insects was counted at 3 days after the treatment, and the mortality rate was calculated by the calculation formula of Equation 1. The number of replicate is one in each test.
as §1

SMILES | pest or weed control at 500 ppm [1] | mortality at 500 ppm [2] | mortality at 500 ppm [3] | mortality at 500 ppm [4] | mortality at 500 ppm [5]
O=C(NCC(F)(F)F)c1cc(OCCCCCBr)c(F)cc1Cl [Compound A-0030, 5-[(5-bromopentyl)oxy]-2-chloro-4-fluoro-N-(2,2,2-trifluoroethyl)benzamide] | ≥ 90% | – | – | – | –
CC(CCl)COc1cc(C(=O)NCC(F)(F)F)c(Cl)cc1F (stereo not shown) [Compound A-0037, 2-chloro-5-(3-chloro-2-methylpropoxy)-4-fluoro-N-(2,2,2-trifluoroethyl)benzamide] | ≥ 90% | – | – | – | –
N#CSCCCCCOc1cc(C(=O)NCC(F)(F)F)c(Cl)cc1F [Compound A-0752, 2-chloro-4-fluoro-5-[(5-thiocyanatopentyl)oxy]-N-(2,2,2-trifluoroethyl)benzamide] | – | ≥ 90% | – | – | –
CC(COc1cc(C(=O)NCC(F)(F)F)c(Cl)cc1F)CSC#N (stereo not shown) [Compound A-0758, 2-chloro-4-fluoro-5-(2-methyl-3-thiocyanatopropoxy)-N-(2,2,2-trifluoroethyl)benzamide] | ≥ 90% | – | – | – | –
O=C(NCC(F)(F)F)c1cc(OCCCCCSC(F)(F)F)c(F)cc1Cl [Compound A-4689, 2-chloro-4-fluoro-N-(2,2,2-trifluoroethyl)-5-({5-[(trifluoromethyl)thio]pentyl}oxy)benzamide] | ≥ 90% | – | – | – | –
Cc1cc(F)c(OCCCCCSC(F)(F)F)cc1C(=O)NCC(F)(F)F [Compound A-4712, 4-fluoro-2-methyl-N-(2,2,2-trifluoroethyl)-5-({5-[(trifluoromethyl)thio]pentyl}oxy)benzamide] | ≥ 90% | – | – | – | –
Fc1cc(Cl)c(C(=S)NCC(F)(F)F)cc1OCCCCCSC(F)(F)F [Compound A-5172, 2-chloro-4-fluoro-N-(2,2,2-trifluoroethyl)-5-({5-[(trifluoromethyl)thio]pentyl}oxy)thiobenzamide] | ≥ 90% | – | – | – | –
N#CCN(CC(F)(F)F)C(=O)c1cc(OCCCCCSC(F)(F)F)c(F)cc1Cl [Compound A-6692, 2-chloro-N-(cyanomethyl)-4-fluoro-N-(2,2,2-trifluoroethyl)-5-({5-[(trifluoromethyl)thio]pentyl}oxy)benzamide] | ≥ 90% | – | ≥ 90% | – | –
CC(=O)N(CC(F)(F)F)C(=O)c1cc(OCCCCCSC(F)(F)F)c(F)cc1Cl [Compound A-6814, N-acetyl-2-chloro-4-fluoro-N-(2,2,2-trifluoroethyl)-5-({5-[(trifluoromethyl)thio]pentyl}oxy)benzamide] | ≥ 90% | ≥ 90% | – | – | –
CC(COc1cc(C(=O)NCC(F)(F)F)c(Cl)cc1F)CSC(F)(F)F (stereo not shown) [Compound B-0009, 2-chloro-4-fluoro-5-{2-methyl-3-[(trifluoromethyl)thio]propoxy}-N-(2,2,2-trifluoroethyl)benzamide] | ≥ 90% | ≥ 90% | ≥ 90% | ≥ 90% | ≥ 90%
CC(COc1cc(C(=O)NCC(F)(F)F)c(Cl)cc1F)NS(=O)(=O)C(F)(F)F (stereo not shown) [Compound C-0004, 2-chloro-4-fluoro-N-(2,2,2-trifluoroethyl)-5-{2-[(trifluoromethyl)sulfonamido]propoxy}benzamide] | ≥ 90% | ≥ 90% | ≥ 90% | ≥ 90% | ≥ 90%
C[C@H](COc1cc(C(=O)NCC(F)(F)F)c(Cl)cc1F)NS(=O)(=O)C(F)(F)F [Compound C-0005, (R)-2-chloro-4-fluoro-N-(2,2,2-trifluoroethyl)-5-{2-[(trifluoromethyl)sulfonamido]propoxy}benzamide] | ≥ 90% | – | – | – | –
C[C@@H](COc1cc(C(=O)NCC(F)(F)F)c(Cl)cc1F)NS(=O)(=O)C(F)(F)F [Compound C-0006, (S)-2-chloro-4-fluoro-N-(2,2,2-trifluoroethyl)-5-{2-[(trifluoromethyl)sulfonamido]propoxy}benzamide] | ≥ 90% | ≥ 90% | ≥ 90% | ≥ 90% | ≥ 90%
C[C@@H](COc1cc(C(=O)NC2CC2)c(Cl)cc1F)NS(=O)(=O)C(F)(F)F [Compound C-0130, (S)-2-chloro-N-cyclopropyl-4-fluoro-5-{2-[(trifluoromethyl)sulfonamido]propoxy}benzamide] | ≥ 90% | ≥ 90% | ≥ 90% | ≥ 90% | ≥ 90%
C[C@@H](COc1cc(C(=O)NC2(C#N)CC2)c(Cl)cc1F)NS(=O)(=O)C(F)(F)F [Compound C-2980, (S)-2-chloro-N-(1-cyanocyclopropyl)-4-fluoro-5-{2-[(trifluoromethyl)sulfonamido]propoxy}benzamide] | ≥ 90% | ≥ 90% | ≥ 90% | – | ≥ 90%
CC(=O)N(CC(F)(F)F)C(=O)c1cc(OCC(C)NS(=O)(=O)C(F)(F)F)c(F)cc1Cl (stereo not shown) [Compound C-4214, N-acetyl-2-chloro-4-fluoro-N-(2,2,2-trifluoroethyl)-5-{2-[(trifluoromethyl)sulfonamido]propoxy}benzamide] | ≥ 90% | ≥ 90% | ≥ 90% | ≥ 90% | ≥ 90%
CC(COc1cc(C(=O)NCC(F)(F)F)c(Cl)cc1F)N(C(=O)OC(C)(C)C)S(=O)(=O)C(F)(F)F (stereo not shown) [Compound C-9422, tert-butyl(1-{4-chloro-2-fluoro-5-[(2,2,2-trifluoroethyl)carbamoyl]phenoxy}propan-2-yl)[(trifluoromethyl)sulfonyl]carbamate] | ≥ 90% | ≥ 90% | ≥ 90% | ≥ 90% | ≥ 90%
